Patent US12559464B2, “Quinazolinone dione compounds and uses thereof” (Edgewise Therapeutics, Inc., priority 2023, dated 2026)

Assays:
[1] = test system: myosin ATPase, Rabbit Psoas myofibrils; assay: Myofibril ATPase assay, rabbit psoas (skeletal) myofibrils; format: biochemical; conditions: Rabbit Psoas Prep pCa 25 GEOM_MEAN; for Rabbit Psoas EC25 (Y75 value): concentration required to reduce myosin ATP-ase activity by 25%; for Rabbit Psoas Y125 value (marked #): concentration required to increase myosin ATP-ase activity by 25%
[2] = target: T1, myosin ATPase, Porcine Ventricle myofibrils (Sus scrofa, UniProt P79293); assay: Myofibril ATPase assay, porcine ventricle myofibrils; format: biochemical, porcine (Yucatan minipigs); conditions: concentration required to reduce myosin ATP-ase activity by 25%; Porcine Ventricle Prep pCa 25 GEOM_MEAN
T1 construct: Myofibrils from porcine cardiac muscle was isolated from the left ventricle of Yucatan minipigs; tissue Exemplar Genetics; host or cells: left ventricle of Yucatan minipigs, myofibrils
Procedure, shortened: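 Myofibrils from Yucatan minipig left ventricle; ADP production coupled via PK-LDH to NADH loss, read kinetically at 340 nm every 1.5–2 min for 75 min in PIPES/MgCl2 pH 7.0 buffer. Slopes normalized to vehicle and fit to 4-parameter logistic; values are concentrations giving 75% (inhibition) or 125% (activation) of vehicle activity.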

[3] = test system: myosin ATPase, Porcine Atria myofibrils; assay: Myofibril ATPase assay, porcine atria myofibrils; format: biochemical; conditions: concentration required to reduce myosin ATP-ase activity by 25%; Porcine Atria Prep pCa 25 GEOM_MEAN

T1 sequence (P79293 whole entry): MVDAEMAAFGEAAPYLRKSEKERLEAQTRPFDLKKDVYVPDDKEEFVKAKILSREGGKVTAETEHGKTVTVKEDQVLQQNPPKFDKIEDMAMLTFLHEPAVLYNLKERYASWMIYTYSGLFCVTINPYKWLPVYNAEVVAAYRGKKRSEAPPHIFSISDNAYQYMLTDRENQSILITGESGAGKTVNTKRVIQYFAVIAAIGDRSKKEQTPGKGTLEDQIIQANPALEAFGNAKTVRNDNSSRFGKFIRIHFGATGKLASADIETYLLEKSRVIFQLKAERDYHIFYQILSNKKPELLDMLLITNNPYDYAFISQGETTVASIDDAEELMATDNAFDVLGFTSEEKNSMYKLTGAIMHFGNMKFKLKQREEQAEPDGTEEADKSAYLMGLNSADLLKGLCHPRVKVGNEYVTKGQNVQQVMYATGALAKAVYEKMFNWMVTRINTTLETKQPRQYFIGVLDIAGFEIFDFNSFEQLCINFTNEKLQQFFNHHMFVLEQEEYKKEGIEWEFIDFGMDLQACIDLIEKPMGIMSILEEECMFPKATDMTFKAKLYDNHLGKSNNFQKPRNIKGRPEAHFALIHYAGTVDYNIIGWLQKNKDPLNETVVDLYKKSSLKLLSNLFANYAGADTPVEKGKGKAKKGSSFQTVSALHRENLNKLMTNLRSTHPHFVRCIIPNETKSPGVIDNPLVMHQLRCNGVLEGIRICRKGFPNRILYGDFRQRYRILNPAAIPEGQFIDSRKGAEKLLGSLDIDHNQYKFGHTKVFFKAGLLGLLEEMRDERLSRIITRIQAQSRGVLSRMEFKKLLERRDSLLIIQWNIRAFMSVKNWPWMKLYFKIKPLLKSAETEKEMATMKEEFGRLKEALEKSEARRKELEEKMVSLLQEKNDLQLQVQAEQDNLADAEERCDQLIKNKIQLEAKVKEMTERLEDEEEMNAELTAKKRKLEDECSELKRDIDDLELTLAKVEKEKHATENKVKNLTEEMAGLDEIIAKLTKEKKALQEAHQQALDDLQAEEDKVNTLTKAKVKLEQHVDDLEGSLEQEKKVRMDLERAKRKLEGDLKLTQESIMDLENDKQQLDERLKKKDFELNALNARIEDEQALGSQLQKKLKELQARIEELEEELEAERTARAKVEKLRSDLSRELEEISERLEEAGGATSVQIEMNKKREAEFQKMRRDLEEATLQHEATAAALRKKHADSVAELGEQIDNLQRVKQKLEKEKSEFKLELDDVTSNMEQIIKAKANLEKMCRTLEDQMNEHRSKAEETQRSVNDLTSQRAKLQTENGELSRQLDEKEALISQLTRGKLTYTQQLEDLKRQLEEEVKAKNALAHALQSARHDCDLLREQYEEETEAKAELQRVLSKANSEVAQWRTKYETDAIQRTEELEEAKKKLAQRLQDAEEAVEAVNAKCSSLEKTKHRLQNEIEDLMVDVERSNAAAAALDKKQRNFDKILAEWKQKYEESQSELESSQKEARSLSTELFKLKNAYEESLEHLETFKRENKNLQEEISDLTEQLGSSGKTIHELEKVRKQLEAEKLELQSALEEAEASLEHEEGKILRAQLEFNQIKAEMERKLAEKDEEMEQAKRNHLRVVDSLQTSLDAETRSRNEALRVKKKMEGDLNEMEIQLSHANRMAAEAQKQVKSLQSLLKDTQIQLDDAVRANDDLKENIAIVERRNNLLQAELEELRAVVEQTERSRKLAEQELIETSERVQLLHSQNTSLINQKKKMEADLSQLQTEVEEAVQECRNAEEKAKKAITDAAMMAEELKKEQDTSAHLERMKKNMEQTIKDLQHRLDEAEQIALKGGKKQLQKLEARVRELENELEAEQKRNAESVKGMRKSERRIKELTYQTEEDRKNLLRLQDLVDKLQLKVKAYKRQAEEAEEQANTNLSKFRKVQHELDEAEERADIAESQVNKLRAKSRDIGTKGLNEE

| Compound | Rabbit Psoas EC25 (Y75 value) [1] [µM] | Porcine Ventricle EC25 (Y75 value) [2] [µM] | Porcine Atria EC25 (Y75 value) [3] [µM] | Rabbit Psoas Y125 value (marked #) [1] |
| --- | --- | --- | --- | --- |
| C[C@@H](NC(=O)Cn1c(=O)[nH]c2ccccc2c1=O)c1ccc(Cl)cc1 (single isomer, unassigned) [Compound 526] | 100 | 100 | 100 | – |
| COc1ccc([C@@H](C)NC(=O)Cn2c(=O)[nH]c3ccccc3c2=O)cc1 (single isomer, unassigned) [Compound 528] | 100 | 100 | 100 | – |
| COc1ccc([C@H](C)NC(=O)Cn2c(=O)[nH]c3ccccc3c2=O)cc1 (single isomer, unassigned) [Compound 529] | 100 | 100 | 100 | – |
| C[C@H](NC(=O)Cn1c(=O)[nH]c2ccccc2c1=O)c1ccc(Cl)cc1 (single isomer, unassigned) [Compound 530] | 3.24 | 4.63 | 0.445 | – |
| C[C@@H](NC(=O)Cn1c(=O)[nH]c2ccccc2c1=O)c1ccccc1 (single isomer, unassigned) [Compound 533] | 100 | 100 | 100 | – |
| C[C@H](NC(=O)Cn1c(=O)[nH]c2ccccc2c1=O)c1ccccc1 (single isomer, unassigned) [Compound 534] | 100 | 100 | 100 | – |
| Cc1c(F)ccc2[nH]c(=O)n(CC(=O)N[C@@H]3COc4cc(C#N)cnc43)c(=O)c12 (single isomer, unassigned) [Compound 701] | 0.023 | 0.075 | 0.07 | – |
| Cc1c(F)ccc2[nH]c(=O)n(CC(=O)N[C@H]3COc4cc(C#N)cnc43)c(=O)c12 (single isomer, unassigned) [Compound 702] | 4.019 | 7.299 | 3.03 | – |
| Cc1c(F)ccc2[nH]c(=O)n(CC(=O)N[C@H](C)c3ncc(C#N)cn3)c(=O)c12 (single isomer, unassigned) [Compound 3005] | 2.34 | 11.35 | 2.78 | – |
| Cc1c(F)ccc2[nH]c(=O)n(CC(=O)N[C@H](C)c3ccc(C#N)cn3)c(=O)c12 (single isomer, unassigned) [Compound 3009] | 0.06 | 0.25 | 0.10 | – |
| Cc1c(F)ccc2[nH]c(=O)n(CC(=O)N[C@@H](C)c3ccc(C#N)cn3)c(=O)c12 (single isomer, unassigned) [Compound 3010] | 1.59 | 1.90 | 1.97 | – |
| C[C@@H](NC(=O)C1(n2c(=O)[nH]c3ccc(F)c(F)c3c2=O)CC1)c1ncc(C#N)cc1F (single isomer, unassigned) [Compound 3011] | 4.77 | 13.07 | 0.42 | – |
| C[C@H](NC(=O)C1(n2c(=O)[nH]c3ccc(F)c(F)c3c2=O)CC1)c1ncc(C#N)cc1F (single isomer, unassigned) [Compound 3013] | 0.40 | 1.04 | 0.19 | – |
| C[C@@H](NC(=O)C1(n2c(=O)[nH]c3cccc(C#N)c3c2=O)CC1)c1ncc(C#N)cc1F (single isomer, unassigned) [Compound 3014] | 100.00 | 100.00 | 100.00 | – |
| C[C@H](NC(=O)C1(n2c(=O)[nH]c3cccc(C#N)c3c2=O)CC1)c1ncc(C#N)cc1F (single isomer, unassigned) [Compound 3015] | 0.89 | 10.96 | 1.89 | – |
| Cc1c(F)ccc2[nH]c(=O)n(CC(=O)N[C@H]3CCc4cc(C#N)cnc43)c(=O)c12 [Compound 10, (S)-N-(3-cyano-6,7-dihydro-5H-cyclopenta[b]pyridin-7-yl)-2-(6-fluoro-5-methyl-2,4-dioxo-1,4-dihydroquinazolin-3(2H)-yl)acetamide] | 100 | 100 | 100 | – |
| Cc1nccc2[nH]c(=O)n(CC(=O)N[C@@H](C)c3ncc(C#N)cc3F)c(=O)c12 [Compound 20, (S)-N-(1-(5-cyano-3-fluoropyridin-2-yl)ethyl)-2-(5-methyl-2,4-dioxo-1,4-dihydropyrido[4,3-d]pyrimidin-3(2H)-yl)acetamide] | 0.799 | 7.141 | 2.095 | – |
| C[C@H](NC(=O)[C@H](Cc1ccccc1)n1c(=O)[nH]c2cccc(O)c2c1=O)c1ccc(F)cc1F [Compound 33, (S)-N-((S)-1-(2,4-difluorophenyl)ethyl)-2-(5-hydroxy-2,4-dioxo-1,4-dihydroquinazolin-3(2H)-yl)-3-phenylpropanamide] | – | 100 | 100 | 51.2^# μM |
| C[C@H](NC(=O)[C@@H](Cc1ccccc1)n1c(=O)[nH]c2cccc(O)c2c1=O)c1ccc(F)cc1F [Compound 34, (R)-N-((S)-1-(2,4-difluorophenyl)ethyl)-2-(5-hydroxy-2,4-dioxo-1,4-dihydroquinazolin-3(2H)-yl)-3-phenylpropanamide] | – | 45.37 | 48.85 | 0.85^#^ μM |
| C[C@H](NC(=O)[C@@H](C)n1c(=O)[nH]c2ccc(F)c(F)c2c1=O)c1ccc(F)cc1F [Compound 37, (R)-2-(5,6-difluoro-2,4-dioxo-1,4-dihydroquinazolin-3(2H)-yl)-N-((S)-1-(2,4-difluorophenyl)ethyl)propanamide] | 0.412 | 17.77 | 0.658 | – |
| C[C@H](NC(=O)[C@H](C)n1c(=O)[nH]c2ccc(F)c(F)c2c1=O)c1ccc(F)cc1F [Compound 38, (S)-2-(5,6-difluoro-2,4-dioxo-1,4-dihydroquinazolin-3(2H)-yl)-N-((S)-1-(2,4-difluorophenyl)ethyl)propanamide] | 0.422 | 3.995 | 0.185 | – |
| C[C@H](NC(=O)Cn1c(=O)[nH]c2ccc(F)c(F)c2c1=O)c1ccc(F)cc1F [Compound 39, (S)-2-(5,6-difluoro-2,4-dioxo-1,4-dihydroquinazolin-3(2H)-yl)-N-(1-(2,4-difluorophenyl)ethyl)acetamide] | 0.055 | 0.3333 | 0.0536 | – |
| C[C@H](NC(=O)[C@H](C)n1c(=O)[nH]c2ccc(F)cc2c1=O)c1ccc(F)cc1F [Compound 40, (S)-N-((S)-1-(2,4-difluorophenyl)ethyl)-2-(6-fluoro-2,4-dioxo-1,4-dihydroquinazolin-3(2H)-yl)propanamide] | 0.476 | 6.567 | 0.1074 | – |
| C[C@H](NC(=O)[C@@H](C)n1c(=O)[nH]c2ccc(F)cc2c1=O)c1ccc(F)cc1F [Compound 41, (R)-N-((S)-1-(2,4-difluorophenyl)ethyl)-2-(6-fluoro-2,4-dioxo-1,4-dihydroquinazolin-3(2H)-yl)propanamide] | 0.828 | 28.36 | 1.375 | – |
| C[C@H](NC(=O)C(C)(C)n1c(=O)[nH]c2ccccc2c1=O)c1ccc(F)cc1F [Compound 42, (S)-N-(1-(2,4-difluorophenyl)ethyl)-2-(2,4-dioxo-1,4-dihydroquinazolin-3(2H)-yl)-2-methylpropanamide] | 100 | 100 | 100 | – |
| CN1CC(NC(=O)Cn2c(=O)[nH]c3ccccc3c2=O)c2c(F)cc(F)cc2C1=O (stereo not drawn) [Compound 43, N-(5,7-difluoro-2-methyl-1-oxo-1,2,3,4-tetrahydroisoquinolin-4-yl)-2-(2,4-dioxo-1,4-dihydroquinazolin-3(2H)-yl)acetamide] | 58.79 | 100 | 100 | – |
| O=C(Cn1c(=O)[nH]c2ccccc2c1=O)NC1CNC(=O)c2cc(F)cc(F)c21 (stereo not drawn) [Compound 46, N-(5,7-difluoro-1-oxo-1,2,3,4-tetrahydroisoquinolin-4-yl)-2-(2,4-dioxo-1,4-dihydroquinazolin-3(2H)-yl)acetamide] | 100 | 100 | 100 | – |
| CC(NC(=O)Cn1c(=O)[nH]c2ccccc2c1=O)c1ncc(F)cc1F (stereo not drawn) [Compound 47, N-(1-(3,5-difluoropyridin-2-yl)ethyl)-2-(2,4-dioxo-1,4-dihydroquinazolin-3(2H)-yl)acetamide] | 1.97 | 100 | 1.442 | – |
